Reference: patent US20190314197A1, “Topical Ocular Delivery Methods and Devices for Use in the Same” (Kedalion Therapeutics, Inc., priority 2018, published 2019)

Tests used:
Type in all cases: in vivo, human
[1] = Near visual acuity (Snellen card at 40 cm) after pilocarpine micro-dose (presbyopia); conditions: dosed eye
Method: (§1) A 10 μl micro-dose of a 1% pilocarpine solution was self-administered using an electromagnetic actuated fluid delivery device, e.g., as described above, by three subjects to their own eye. The age range of the subjects was 52 years to 68 years, and all subjects were male. The pilocarpine micro-dose was self-administered by the subjects.
(§2) Baseline, pre-dose values of pupil diameter and near visual acuity in both eyes prior to dosing was measured for all subjects, and then following the baseline measurements, the subjects were dosed in only one eye (the eye with the poorer visual acuity) with the micro-dose pilocarpine solution. Approximately 45 to 60 minutes after dosing, pupil diameter and near visual acuity were again tested. Near visual acuity was measured using a Snellen card at a distance of 40 cm. A tabulation of results is given below in Table A.

[2] = Pupil diameter after self-administered pilocarpine micro-dose (presbyopia); conditions: non-dosed fellow eye
Method: as §1, §2

[3] = Trial 2: intraocular pressure reduction (Goldmann applanation tonometry) in primary open angle glaucoma patients; conditions: for average IOP decrease measured per patient: approximately 8 hours after dosing
Method: Trial 2 compared the efficacy (dose volume equivalence) of 0.005% w/v latanoprost for intraocular pressure reduction when delivered via AcuStream™ (pre-trial calibration volume=9.2 μl) versus the standard eye dropper for topical drug delivery (approximate volume=30 μl).
Patients included in Trial 2 have previously been diagnosed with primary open angle glaucoma on the basis of intraocular pressure and visual field testing, fundus examination or optical coherence tomography (OCT) data and are currently on prostaglandin analog medical therapy. Patients with corneal abnormalities that would interfere with accurate IOP measurements with applanation tonometry, use of an oral or topical ophthalmic steroids within the past 14 days from screening date, any active ocular surface or anterior segment disease, or progressive field loss during the past year were excluded from the study. Thirteen men and five women participated in the trial.
Recruited patients were taken off medical therapy for a period of 3-4 weeks prior to the study to allow drug “wash out”, thereby elevating their IOPs to pre-treatment levels which was confirmed by examination of the patients' chart history. Patients were randomly assigned as “test” (AcuStream™), or “control” (standard eye dropper). The mean age of the control group and test group were 61.0 years and 65.2 years, respectively.
The patients assigned to either the “test” or “control” group by means of a random numbers table in order to mitigate any potential cross-over effects that could confound data interpretation. An odd number dictated that the patient was in the test group, while even-numbered patients were in the control group.
After performing slit lamp examinations on each patient to verify eligibility and obtaining informed consent, intraocular pressure (IOP) was measured by a sole experienced examiner who was blind to the randomized conditions. A pre-calibrated Goldmann applanation tonometer coupled to a Haag-Streit 900 EQ slit lamp was used to conduct baseline IOP measurements. Once baseline IOP data were verified to be equivalent to pre-medical therapy levels (based on patient's treatment history), the patient then continued to the dosing stage of the study.
Latanoprost solution was administered by a sole ophthalmologist to both eyes of each patient, based on the pre-determined randomized condition.

Compound	mean improvement in near visual acuity ([1]; all subjects) [lines]	# of lines change in visual acuity ([1]; mean of 3 subjects) [lines]	miotic effect in non-dosed eye [2]	average IOP decrease measured per patient ([3]; AcuStream (test group)) [mm Hg]	difference in IOP reduction between AcuStream and standard dropper groups ([3]; Wilcoxon Ranked Sum test, p=0.3447)	post-instillation IOP, single patient outlier ([3]; control group (standard dropper), OD, baseline IOP 30 mm Hg) [mm Hg]	equivalence of 9.2 μl AcuStream dose volume to 30 μl standard eye drops, intraocular pressure reduction ([3]; human, in vivo)	average IOP decrease measured per patient ([3]; standard eye dropper (control group)) [mm Hg]
CC[C@@H]1C(=O)OC[C@@H]1Cc1cncn1C [pilocarpine]	2	2	no miotic effect	–	–	–	–	–
CC(C)OC(=O)CCC/C=C\C[C@@H]1[C@@H](CC[C@@H](O)CCc2ccccc2)[C@H](O)C[C@@H]1O [latanoprost]	–	–	–	5.0	no statistically significant differences	17	pharmacodynamic equivalence	4.3
